20 compounds from US9133203B2, “Pyrroloquinazoline compounds” (OREGON HEALTH & SCIENCE UNIVERSITY, priority 2013, dated 2015) can be followed below.

In general, GI50 refers to the concentration giving 50% growth inhibition. A high value points to less potent growth inhibition. As a reminder, the melting point is the temperature of the solid-liquid transition.

Data set [1] deals with MDA-MB-231. Put plainly: MTT antiproliferation assay in MDA-MB-231 cells. The following applies: Homo sapiens, concentration that limits growth by 50%, 72 hour incubation, mean ± SD, at least two experiments in duplicate. The format is cell-based. The method, then: (§1) The newly synthesized selectively mono-N-acylated compounds of series 4 and series 7 were evaluated as potential anticancer agents because compound 1 had been previously shown to display anticancer activity by inhibiting DHFR (Kuyper L F et al, J Med Chem 39, 892-903 (1996); incorporated by reference herein). Compounds of series 2 were not evaluated due to their poor solubility in DMSO. Two triple negative breast cancer (TN BC) cell lines (MDA-MB-231 and MDAMB-468) were selected to evaluate potential anticancer activity of the compounds of series 4 and series 7 by an MTT assay (Li B X et al, Bioorg Med Chem 20, 6811-6820 (2012); incorporated by reference herein.) TNBC represents a unique subtype of breast cancer clinically characterized by the lack of expression of estrogen receptor (ER), progesterone receptor (PR) and human epidermal growth factor receptor 2 (HER2). Subjects with triple negative breast cancer often have a poor prognosis (Kang S P et al, Curr Opin Obstet Gynecol 20, 40-46 (2008) and The Cancer Genome Atlas Network Nature, 490, 61-70 (2012); both of which are incorporated by reference herein). Current treatment options for TNBC are limited and novel agents are needed (Shastry M and Yardley D A, Curr Opin Obstet Gynecol 25, 40-48 (2013); incorporated by reference herein).
(§2) GI50 values represent the concentration that limits the growth of the cancer cells by 50% during a 72 hour incubation period. These are presented as mean±standard deviation of the mean of at least two independent experiments performed in duplicate.
(§3) TMTT assays for MDA-MB-231, MDA-MB-468 and HMEC were performed as described in Li et al, 2012 supra.
In general terms: Tetrazolium assays rely on reduction of a dye to a coloured formazan, in cell work by metabolically active cells.

Data set [2] concerns MDA-MB-468. Put plainly: MTT antiproliferation assay in MDA-MB-468 cells. In kind it is cell-based. The following applies: Homo sapiens, concentration that limits growth by 50%, 72 hour incubation, mean ± SD, at least two experiments in duplicate. The procedure: as §1, §2, §3
Data set [3] is described as follows: Solubility observations. The following applies: high-quality 13C NMR spectra could not be obtained. The format is physicochemical.
A short description of data set [4]: Stability in HPLC mobile phase containing TFA. The format is physicochemical. The conditions noted are these: HPLC mobile phase water/acetonitrile with 0.1% TFA. The method, then:
The solvents used for each reaction were purified from the Glass Contout solvent purification system. Melting points were determined in capillary tubes using MeI-Temp and are uncorrected. NMR spectra were recorded at 400 MHz (^1H NMR) and 100 MHz (^13C NMR). Chemical shifts (δ) are reported in ppm relative to the residual CHCl3 (1H, 7.26 ppm, 13C, 77.0 ppm) or DMSO (1H, 2.50 ppm, 13C, 39.5 ppm). The following abbreviations were used to describe the splitting pattern of individual peaks if applicable: s=singlet, d=doublet, t=triplet, q=quartet, m=multiplet. The coupling constants (J) were reported in Hertz (Hz). Silica gel flash chromatography was performed using 230-400 mesh silica gel (EMD). The mass spectra were obtained from an LTQ Orbitrap Discovery mass spectrometer (Thermo Scientific, West Palm Beach, Fla.) with electrospray operated either in positive or negative mode. All final compounds were confirmed to be of >95% purity based on HPLC (Waters) analysis using an XBridge C18 column (4.6×150 mm) and detected at 254 nm (due to the poor solubility, compound 2a-2d were not evaluated by HPLC). The mobile phases for HPLC are water and acetonitrile, both of which contain 0.1% TFA (for compounds 2e, 4e, and 7e which contain a TBS group, 0.01% TFA was used due to instability of these compounds in 0.1% TFA).

For data set [5], the system named is normal human mammary epithelial cells (HMEC). Put plainly: MTT viability assay in normal human mammary epithelial cells. The format is cell-based. The following applies: toxic at a concentration as low as. The procedure: FIG. 2 is a plot showing the effect of compound 7f on normal human mammary epithelial cells (HMEC.) HMEC were treated with the indicated concentrations of doxorubicin or 7f for 24 or 72 hours as indicated. Cells treated for 24 hours were further incubated in drug free media for 48 hours. The number of viable cells was determined by an MTT assay.
as §3

Each structure is given as a SMILES string. A value given as a limit tells only on which side of the number the result lay.

Compound `CCC(=O)Nc1nc(N)nc2ccc3[nH]ccc3c12` [Compound 4b] gave a melting point of 226 to 228 °C. In data set [1], this compound gave a GI50 of 18.7 ± 2.24 µM. For the same compound, halving of growth in data set [2] (GI50) required 20.3 ± 7.4 µM.
With `CC(=O)n1ccc2c3c(N)nc(N)nc3ccc21` [Compound 2a], the melting point fell in the range of 202 to 204 °C. For the same compound, the “solubility (13C NMR sample)” value in data set [3] is given as “so limited”.
Turning to `Nc1nc(N)c2c(ccc3[nH]ccc32)n1` [Compound 1, 7H-Pyrrolo[3,2-f]quinazoline-1,3-diamine, reference compound], the values for the GI50 in data set [1] and in data set [2] were 4.13 ± 0.54 µM and 3.34 ± 0.93 µM, respectively.
The matching figures for `CC(C)C(=O)Nc1nc(N)nc2ccc3[nH]ccc3c12` [Compound 4d]: > 100 µM and > 100 µM.
The compound `CC(C)C(=O)Nc1nc(N)c2c(ccc3[nH]ccc32)n1` [Compound 7d] had a melting point of 288 to 290 °C. The GI50 in data set [1] turned out to be 39.7 ± 22.5 µM. The compound also yielded a GI50 in data set [2] of 29.8 ± 8.41 µM.
Compound `CC(C)(C)[Si](C)(C)OCCCCC(=O)Nc1nc(N)c2c(ccc3[nH]ccc32)n1` [Compound 7e] returned a melting point of 140 to 142 °C. This compound also showed a GI50 in data set [1] of 2.43 ± 0.13 µM. The same compound showed a GI50 in data set [2] of 2.24 ± 0.4 µM. Besides, the “stability in 0.1% TFA” value in data set [4] is listed as “instability”.
Take `CCCCOc1cc2ccccc2cc1C(=O)Nc1nc(N)c2c(ccc3[nH]ccc32)n1` [Compound 7g, N-(1-Amino-7H-pyrrolo[3,2-f]quinazolin-3-yl)-3-butoxy-2-naphthamide]: the GI50 in data set [1] worked out at 0.65 ± 0.43 µM; in data set [2], 0.1 ± 0.079 µM.
Regarding `CCCC(=O)Nc1nc(N)c2c(ccc3[nH]ccc32)n1` [Compound 7c], the melting point was in the range of 262 to 264 °C. The GI50 in data set [1] was found to be 25.5 ± 9.93 µM. The compound also yielded a GI50 in data set [2] of 27.4 ± 4.52 µM.
Take `CCCC(=O)Nc1nc(N)nc2ccc3[nH]ccc3c12` [Compound 4c]: the melting point lay in the range of 224 to 226 °C. In data set [1], this compound yielded a GI50 of 26.9 ± 12.9 µM. In data set [2], this compound gave a GI50 of 26.3 ± 7.4 µM.
Compound `CC(C)C(=O)n1ccc2c3c(N)nc(N)nc3ccc21` [Compound 2d] came in with a melting point of 200 to 202 °C.
In turn, `CCCC(=O)n1ccc2c3c(N)nc(N)nc3ccc21` [Compound 2c] registered a melting point of 196 to 198 °C. Also, the “solubility (13C NMR sample)” value in data set [3] is “so limited”.
In turn, `CC(=O)Nc1nc(N)nc2ccc3[nH]ccc3c12` [Compound 4a] showed a melting point of 236 to 238 °C. Further, in data set [1], the GI50 was determined as 32.6 ± 14 µM. Also, halving of growth in data set [2] (GI50) required 56.5 ± 18 µM.
Consider `CC(C)(C)[Si](C)(C)OCCCCC(=O)Nc1nc(N)nc2ccc3[nH]ccc3c12` [Compound 4e], for which the melting point lay in the range of 172 to 174 °C. In addition, the GI50 in data set [1] is 15.6 ± 7.66 µM. It took 11.1 ± 1.73 µM to inhibit growth in data set [2] by half (GI50). Further, the “stability in 0.1% TFA” value in data set [4] is “instability”.
Regarding `CC(C)(C)[Si](C)(C)OCCCCC(=O)n1ccc2c3c(N)nc(N)nc3ccc21` [Compound 2e], the melting point was in the range of 173 to 175 °C. In addition, in data set [4], the “stability in 0.1% TFA” value was “instability”.
For the compound `CCC(=O)Nc1nc(N)c2c(ccc3[nH]ccc32)n1` [Compound 7b], the melting point lay within 228 to 230 °C. The GI50 in data set [1] was 21.4 ± 9.86 µM. This compound also came in with a GI50 in data set [2] of 24.4 ± 3.33 µM.
The matching figures for `CC(=O)Nc1nc(N)c2c(ccc3[nH]ccc32)n1` [Compound 7a]: 260 to 262 °C, 27.2 ± 11.4 µM and 53.5 ± 29.5 µM.
In data set [2], `COc1cccc2c1C(=O)c1c(O)c3c(c(O)c1C2=O)C[C@@](O)(C(=O)CO)C[C@@H]3O[C@H]1C[C@H](N)[C@H](O)[C@H](C)O1` [Dox, doxorubicin, reference compound] yielded a GI50 of 0.12 µM. In addition, in data set [5], the “concentration toxic to normal HMEC cells” value was ≤ 100 nM.
Compound `Nc1nc(N)c2c(ccc3c2ccn3C(=O)c2ccc3ccccc3c2)n1` [Compound 2f] returned a melting point of 188 to 190 °C.
Regarding `Nc1nc(NC(=O)c2ccc3ccccc3c2)c2c(ccc3[nH]ccc32)n1` [Compound 4f], the GI50 in data set [1] turned out to be 8.46 ± 2.56 µM; in data set [2] it was 8.91 ± 1.28 µM.
Take `CCC(=O)n1ccc2c3c(N)nc(N)nc3ccc21` [Compound 2b]: the melting point fell in the range of 210 to 212 °C. Further, in data set [3], the “solubility (13C NMR sample)” value is reported as “so limited”.
